Type in all cases: cell-based
For data set [1], the system named is Normal human skin fibroblasts (adult). The data set can be described thus: Reprogramming of human skin fibroblasts: change in form, spheroid formation, alkaline phosphatase stain. How it is done: (§1) Normal human skin fibroblasts (adult) (Takara Bio) were seeded to a spheroid plate, and after 24 to 48 hours, medium exchange was performed on a D-MEM (Low Glucose) medium to which 2-mercaptoethanol diluted by 1/100000 (142 μM) was added. Then, after three to four days, medium exchange was performed again on the same D-MEM medium.
Then, after three or four days, the medium exchange was performed again on the same medium.
The alkaline phosphatase reaction of the cells finally obtained by the above-described culture was examined. The stain of alkaline phosphatase was performed in accordance with the operating manual attached to the kit using Alkaline Phosphatase Live Stain (Invitrogen). Specifically, the cells were cultured for 30 minutes in a medium in which a staining fluid (AP Live Stain) attached to the kit diluted by 500 times was added in the D-MEM. Afterwards, the medium was exchanged and cleaning was performed for five minutes x two times.
(§2) The processes similar to those of the above-described items 1 and 2 were performed to examine the concentration of 2-mercaptoethanol. Specifically, except that the concentration of 2-mercaptoethanol was set to 0.142 μM, 1.42 μM, 14.2 μM, 142 μM, 1.42 mM, 14.2 mM, and 142 mM, the operations same as those in the items 1 and 2 were performed.
Similarly to the item 1, after performing the culture in the D-MEM medium containing the 2-mercaptoethanol (142 μM), LIF (wako, used by 1:1000), ACTH (wako, 10 μmol/L), bFGF (wako, 0.34 nmol/L), and AR-A014418 (Merck, 3 μM) were added in this medium and further the cells were cultured for one week. As a result, both of spheroid formation of the cells and the alkaline phosphatase stain were observed.
In the item 1, when (i) only the LIF, (ii) only the ACTH, or (iii) only the LIF and the ACTH were added to the ADSC-4 medium for culture, spheroid formation of the cells and the alkaline phosphatase stain were observed under any conditions.

Data set [2] deals with normal human skin fibroblast (adult). The data set can be described thus: Effect by CCL2 added to LIF on reprogramming (cell form). How it is done: The CCL2 was added to the LIF and an influence given to reprogramming was verified. In accordance with Working Example 1, while medium exchange was performed on a normal human skin fibroblast (adult) (the Takara Bio) in a D-MEM medium containing 2-mercaptoethanol (142 μM) for three to four days, culture was performed for seven days. Next, culture was performed for additional seven days in a medium in which (i) only LIF, (ii) LIF+CCL2 (10 ng/mL), or (iii) LIF+CCL2 (100 ng/mL) were added to an ADSC-4 medium. Note that the LIF was used by 1:1000.

For data set [3], the system named is Normal human skin fibroblasts (adult). Nature of the data set: Extinction of cells at high 2-mercaptoethanol concentration. To be noted: D-MEM medium. How it is done: as §1, §2
The test system of data set [4] is Nanog, Klf4, Oct4, and Sox2. Nature of the data set: PCR for expression of undifferentiated markers. The note with it: human skin fibroblasts processed with 2-mercaptoethanol and reprogrammed (FIG. 4 lane 3). How it is done:
Whether gene expression had been generated was examined on Nanog, Klf4, Oct4, and Sox2 as the undifferentiated markers. The RNA was collected from the cells using a RNeasy Mini Kit (QIAGEN). PCR was performed on the above-described various kinds of undifferentiated markers using the method described in Cell. 2007 Nov 30; 131(5): 861-72.

Where [5] appears, read: after 2-mercaptoethanol (142 μM) step, only the named factor(s) added to ADSC-4 medium.
Where [6] appears, read: culture only in D-MEM containing 2-mercaptoethanol (142 μM), no step (b).

For the molecule “LIF: leukemia inhibiting factor, OCT3/4 transcription stimulating factor (wako, used by 1:1000)”, in data set [1] (setting [5]), the “alkaline phosphatase stain (strength)” value is given as “especially observed strongly”; the “spheroid formation of the cells and alkaline phosphatase stain” value is listed as “observed”. In addition, in data set [2] ((i) only LIF 1:1000 in ADSC-4, seven days, after 2-mercaptoethanol (142 μM) seven days), the “change in form of the cells” value is on record as “confirmed”.

`OCCS` [2-mercaptoethanol]: the “change in form of the cells” value in data set [1] (142 μM in D-MEM (Low Glucose), cultured for one week) is reported as “the change in form of the cells was confirmed”. Further, the “spheroid formation of the cells and alkaline phosphatase stain” value was “observed” in data set [1] (142 μM in D-MEM, then LIF, ACTH, bFGF, AR-A014418 added in this same medium, one further week) and “observed” in data set [1] (2-mercaptoethanol at 0.142 μM to 1.42 mM in step (a), then ADSC-4 with LIF, ACTH, bFGF, AR-A014418). Moreover, the spheroid formation result in data set [1] (142 μM one week, then one week in ADSC-4 with LIF 1:1000, ACTH 10 μmol/L, bFGF 0.34 nmol/L, AR-A014418 3 μM) is given as “forming spheroids”. Besides, the “alkaline phosphatase stain (AP Live Stain, fluorescence microscope)” value in data set [1] (142 μM one week, then one week in ADSC-4 with LIF, ACTH, bFGF, AR-A014418) was “the stain was observed”. The alkaline phosphatase stain entry is reported as “especially strongly observed” in data set [1] (2-mercaptoethanol at 14.2 μM to 1.42 mM in step (a), then ADSC-4 with LIF, ACTH, bFGF, AR-A014418) and “weak” in data set [1] (setting [6]). The “spheroid formation of the cells” value in data set [1] (setting [6]) is listed as “observed”. Further, in data set [3], the “2-mercaptoethanol concentration at which extinction of the cells was observed” value is on record as at least 14.2 mM. Moreover, the “expression of undifferentiated markers Nanog, Klf4, Oct4, and Sox2 (PCR bands around targeted sizes)” value in data set [4] is “bands were able to be confirmed”.

For the molecule “ACTH: adrenocorticotropic hormone (wako, 10 μmol/L) (SYSMEHFRWGKPVGKKRRPVKVYPNGAEDESAEAFPLEF; Corticotropin; UniProt P01189 138-176, looked up)”, the “spheroid formation of the cells and alkaline phosphatase stain” value in data set [1] (setting [5]) is on record as “observed”.

Regarding “CCL2: chemokine (C-C motif) ligand 2, OCT3/4 transcription stimulating factor”, the “cell aggregation on addition of CCL2 to LIF” value in data set [2] (contours between cells clarified, divergence of cell adhesion recognized (FIG. 13D)) was “remarkable”.

The record behind these values is patent US20220403337A1, “CELL REPROGRAMMING METHOD” (priority 2019, published 2022).
